SMILES strings stand for the structures.

NaV1.7, sequence (Q15858 whole entry): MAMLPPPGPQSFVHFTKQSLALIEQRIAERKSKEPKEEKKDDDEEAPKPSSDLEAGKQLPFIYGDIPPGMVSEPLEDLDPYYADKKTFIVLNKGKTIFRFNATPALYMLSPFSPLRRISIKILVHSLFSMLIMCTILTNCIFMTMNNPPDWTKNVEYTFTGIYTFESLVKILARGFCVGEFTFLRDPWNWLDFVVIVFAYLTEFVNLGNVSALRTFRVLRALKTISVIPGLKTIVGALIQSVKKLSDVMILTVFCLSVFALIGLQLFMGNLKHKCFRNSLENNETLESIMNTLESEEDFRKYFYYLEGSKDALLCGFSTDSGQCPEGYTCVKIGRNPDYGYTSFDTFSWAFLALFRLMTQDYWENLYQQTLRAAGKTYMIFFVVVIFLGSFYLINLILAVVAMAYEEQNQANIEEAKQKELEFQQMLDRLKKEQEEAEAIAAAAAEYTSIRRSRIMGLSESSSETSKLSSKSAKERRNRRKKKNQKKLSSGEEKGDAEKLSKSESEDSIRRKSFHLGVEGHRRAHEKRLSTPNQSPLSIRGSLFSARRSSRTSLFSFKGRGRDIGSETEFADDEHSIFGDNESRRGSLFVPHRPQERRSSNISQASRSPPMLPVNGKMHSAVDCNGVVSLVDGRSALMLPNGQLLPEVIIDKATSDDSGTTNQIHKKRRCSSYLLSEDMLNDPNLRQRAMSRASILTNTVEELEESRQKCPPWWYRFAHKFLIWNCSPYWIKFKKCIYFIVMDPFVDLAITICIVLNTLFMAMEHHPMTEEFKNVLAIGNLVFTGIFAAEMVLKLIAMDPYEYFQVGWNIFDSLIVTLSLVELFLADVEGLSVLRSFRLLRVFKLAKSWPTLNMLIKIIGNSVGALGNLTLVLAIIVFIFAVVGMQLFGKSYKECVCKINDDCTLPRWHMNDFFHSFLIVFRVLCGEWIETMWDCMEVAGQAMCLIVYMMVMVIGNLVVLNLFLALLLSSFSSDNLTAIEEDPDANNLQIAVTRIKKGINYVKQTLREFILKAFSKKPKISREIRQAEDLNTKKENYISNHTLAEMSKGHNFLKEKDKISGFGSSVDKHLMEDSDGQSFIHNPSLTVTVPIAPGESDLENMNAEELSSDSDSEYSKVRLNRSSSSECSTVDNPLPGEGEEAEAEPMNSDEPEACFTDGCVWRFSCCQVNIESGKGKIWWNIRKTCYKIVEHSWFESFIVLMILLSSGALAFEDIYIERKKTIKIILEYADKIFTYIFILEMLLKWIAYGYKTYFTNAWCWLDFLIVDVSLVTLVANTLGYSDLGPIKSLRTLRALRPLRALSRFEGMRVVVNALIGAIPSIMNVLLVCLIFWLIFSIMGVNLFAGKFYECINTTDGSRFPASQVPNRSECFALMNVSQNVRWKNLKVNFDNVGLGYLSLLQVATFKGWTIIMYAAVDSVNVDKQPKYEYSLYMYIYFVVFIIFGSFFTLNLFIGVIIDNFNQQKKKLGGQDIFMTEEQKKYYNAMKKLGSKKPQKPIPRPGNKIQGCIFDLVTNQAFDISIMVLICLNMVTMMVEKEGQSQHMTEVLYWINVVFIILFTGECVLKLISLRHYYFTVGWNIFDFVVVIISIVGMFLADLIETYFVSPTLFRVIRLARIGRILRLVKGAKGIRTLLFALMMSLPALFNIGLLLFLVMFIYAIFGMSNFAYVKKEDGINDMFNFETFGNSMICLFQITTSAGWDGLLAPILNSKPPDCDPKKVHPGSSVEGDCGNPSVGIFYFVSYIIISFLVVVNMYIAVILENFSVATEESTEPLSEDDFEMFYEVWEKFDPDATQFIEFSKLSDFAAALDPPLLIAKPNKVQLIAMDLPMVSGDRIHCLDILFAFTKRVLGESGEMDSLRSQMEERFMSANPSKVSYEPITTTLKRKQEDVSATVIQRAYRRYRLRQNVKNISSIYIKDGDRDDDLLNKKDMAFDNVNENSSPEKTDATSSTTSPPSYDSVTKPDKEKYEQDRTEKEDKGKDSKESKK

The test addresses NaV1.7 (Homo sapiens (Human), UniProt Q15858). Description: NaV1.7 IC50 of Table 1 (IonWorks Barracuda population patch clamp or ligand binding assay; table does not say which). In kind it is cell-based. The note with it: HEK 293 cells expressing NaV1.7. The method, then: Ion Works Barracuda population patch clamp (PPC). PPC measurements were performed using an IonWorks Barracuda instrument (Molecular Devices Corporation, Union City, Calif.) using either PatchPlate™ PPC substrates (Molecular Devices Corporation) with 64 apertures per well. The ability to average currents from 64 recordings from each well greatly improves data consistency and recording success rates in the measurement of NaV1.7 mediated ionic currents. Calculated leak current was digitally subtracted from the total cell NaV1.7 current for each sample point acquired.
NaV1.7 currents were elicited by a voltage clamp protocol designed to bias the NaV1.7 channels to their inactivated state as follows. […] This was followed by a relatively brief hyperpolarization to −100 mv for 300 ms, then a 20 msec test pulse to −20 mV to elicit the NaV1.7 current used to measure the pharmacology of all test compounds. Compounds were incubated for 600 sec between the pre- and post-compound reads. […] The same solutions were used to record NaV1.5 currents, with the following voltage clamp protocol. NaV1.5 currents were elicited by a voltage clamp protocol designed to bias the NaV1.5 channels to their inactivated state as follows. […] This was followed by a relatively brief hyperpolarization to −100 mv for 30 ms, then a 20 msec test pulse to −10 mV to elicit the NaV1.5 current used to measure the pharmacology of all test compounds.
HEK 293 cells expressing NaV1.7 and NaV1.5 channels, were used (Essen Biosciences, Ann Arbor, Mich.). […] Cells were grown to 70% to 90% confluence in a flask and removed from the incubator (37° C., 5% CO2) 1 to 3 days after plating. Growth medium was aspirated from the culture flasks. […] Next a total of 2 mL TrypLE (Gibco) solution was added, and the flasks containing cells were sat for 3 min at RT, after which, the cells became visibly rounded and were easily dislodged from the bottom of the flask with a few brief taps on a solid surface. A total of 8 mL of media was added to the flask to inactivate the TrypLE, and the mixture was centrifuged at 910 rpm for 4 min. The cell supernatant was decanted, and the cell pellets were resuspended in 5-6 mL of external solution followed by gentle triturations using a 10 ml pipette, and transferred to a 15 ml conical tube and immediately brought to the IW Barracuda instrument.
Peak membrane currents were analyzed with IW Barracuda software and exported to Excel for further analysis. Concentration response curve fitting was performed with BMS in-house software. IC50 values were obtained by fits of the Hill equation to the average percent inhibition data plotted versus compound concentration. […] Results are reported in Table 1 (NaV1.7 Barra IC50 in nM and NaV1.5 Barra IC50 in nM).
hNaV1.7 binding affinities were determined with a filtration binding assay using purified membranes from HEK293 cells stably expressing hNaV1.7. HEK293 cells from a 10-stack cell culture flask (approximately 10^10 cells) were dissociated, frozen, and stored at −80° C. To prepare membranes, the frozen cell pellet was thawed and suspended in 6 ml hypotonic lysis buffer (50 mM HEPES, 0.1% mammalian protease inhibitor cocktail). 1 ml of resuspended cells was added to an additional 6 ml of lysis buffer and homogenized with 30 strokes of a tight pestle in a glass homogenizer. Homogenate was centrifuged at 1000×g for 10 minutes at 4° C. and the resulting supernatant was further centrifuged at 38,500×g for 60 minutes at 4° C. The resulting pellet was resuspended in binding buffer (50 mM HEPES, 130 mM NaCl, 5.4 mM KCl, 0.8 mM MgCl2, 5 mM glucose, pH 7.4) and needle homogenized with a 25 gauge needle. Protein concentration was determined with a BCA protein assay. Purified membranes were aliquoted, flash frozen in an ethyl alcohol dry ice bath, and stored at −80° C.
The IC50 is the concentration at which inhibition is half-maximal. For `NC1CCC(CCOc2cc(F)c(S(=O)(=O)Nc3ncns3)cc2F)(c2ccccc2)CC1` (single isomer, unassigned) [Example 49, 4-(2-(4-amino-1-phenylcyclohexyl)ethoxy)-2,5-difluoro-N-(1,2,4-thiadiazol-5-yl)benzenesulfonamide], the IC50 turned out to be 15 nM.
With `NC1CCC(CCOc2cc(F)c(S(=O)(=O)Nc3ncns3)cc2F)(c2ccccc2)CC1` (single isomer, unassigned) [Example 50, 4-(2-(4-amino-1-phenylcyclohexyl)ethoxy)-2,5-difluoro-N-(1,2,4-thiadiazol-5-yl)benzenesulfonamide] the figure was 473 nM; with `CC1(CCOc2cc(F)c(S(=O)(=O)Nc3ncns3)cc2F)CCC(N)CC1` (single isomer, unassigned) [Example 56, 4-(2-((1s,4s)-4-Amino-1-methylcyclohexyl)ethoxy)-2,5-difluoro-N-(1,2,4-thiadiazol-5-yl)benzenesulfonamide], 78 nM.
`CC1(CCOc2cc(F)c(S(=O)(=O)Nc3ncns3)cc2F)CCC(N)CC1` (single isomer, unassigned) [Example 57, 4-(2-((1s,4s)-4-Amino-1-methylcyclohexyl)ethoxy)-2,5-difluoro-N-(1,2,4-thiadiazol-5-yl)benzenesulfonamide]: the IC50 was found to be 383 nM.
For `NC1CCC(COc2cc(F)c(S(=O)(=O)Nc3ncns3)cc2F)(Cc2ccc(Cl)c(F)c2)CC1` (single isomer, unassigned) [Example 61, 4-((4-amino-1-(4-chloro-3-fluorobenzyl)cyclohexyl)methoxy)-2,5-difluoro-N-(1,2,4-thiadiazol-5-yl)benzenesulfonamide], the IC50 amounted to 52 nM.
With `NC1CCC(COc2cc(F)c(S(=O)(=O)Nc3ncns3)cc2F)(Cc2ccc(Cl)c(F)c2)CC1` (single isomer, unassigned) [Example 62, 4-((4-amino-1-(4-chloro-3-fluorobenzyl)cyclohexyl)methoxy)-2,5-difluoro-N-(1,2,4-thiadiazol-5-yl)benzenesulfonamide] the figure was 55 nM.
`O=S(=O)(Nc1nccs1)c1cc(Cl)c(NCCC2CCCNC2)cc1F` (stereo not drawn) [Example 2, 5-Chloro-2-fluoro-4-((2-(piperidin-3-yl)ethyl)amino)-N-(thiazol-2-yl)benzenesulfonamide] gave an IC50 of 12 nM.
For `CN1CCC(CCNc2cc(F)c(S(=O)(=O)Nc3nccs3)cc2Cl)CC1` [Example 5, 5-Chloro-2-fluoro-4-((2-(1-methylpiperidin-4-yl)ethyl)amino)-N-(thiazol-2-yl)benzenesulfonamide], the IC50 came out at 70 nM.
With `O=S(=O)(Nc1nccs1)c1cc(Cl)c(NCC2CNCCO2)cc1F` (stereo not drawn) [Example 6, 5-Chloro-2-fluoro-4-((morpholin-2-ylmethyl)amino)-N-(thiazol-2-yl)benzenesulfonamide] the figure was 67 nM.
`O=S(=O)(Nc1nccs1)c1cc(Cl)c(NCC2(CN3CCOCC3)CC2)cc1F` [Example 8, 5-Chloro-2-fluoro-4-(((1-(morpholinomethyl)cyclopropyl)methyl)amino)-N-(thiazol-2-yl)benzenesulfonamide] yielded an IC50 of 181 nM. This IC50 is about 2.7-fold higher than that of the molecule before.
Molecule `O=S(=O)(Nc1nccs1)c1cc(Cl)c(NCC2(CN3CCCC3)CC2)cc1F` [Example 12, 5-Chloro-2-fluoro-4-(((1-(pyrrolidin-1-ylmethyl)cyclopropyl)methyl)amino)-N-(thiazol-2-yl)benzenesulfonamide] gave a concentration for half-maximal inhibition (IC50) of 11 nM.
To `O=S(=O)(Nc1nccs1)c1cc(Cl)c(NCCC2CCNC2)cc1F` (stereo not drawn) [Example 13, 5-Chloro-2-fluoro-4-((2-(pyrrolidin-3-yl)ethyl)amino)-N-(thiazol-2-yl)benzenesulfonamide] belongs 17 nM.
Turning to `O=S(=O)(Nc1nccs1)c1cc(Cl)c(NCC2CNC2)cc1F` [Example 15, 4-((Azetidin-3-ylmethyl)amino)-5-chloro-2-fluoro-N-(thiazol-2-yl)benzenesulfonamide], the IC50 is 394 nM. This IC50 is about 23-fold higher than that of the molecule before.
`O=S(=O)(Nc1nccs1)c1cc(Cl)c(NCCC2CNC2)cc1F` [Example 16, 4-((2-(Azetidin-3-yl)ethyl)amino)-5-chloro-2-fluoro-N-(thiazol-2-yl)benzenesulfonamide] showed an IC50 of 29 nM.
With `N[C@H]1CC[C@@H](CNc2cc(F)c(S(=O)(=O)Nc3ncns3)cc2Cl)CC1` [Example 19, 4-((((1s,4s)-4-Aminocyclohexyl)methyl)amino)-5-chloro-2-fluoro-N-(1,2,4-thiadiazol-5-yl)benzenesulfonamide] the figure was 16 nM; with `N[C@H]1CC[C@@H](CNc2cc(F)c(S(=O)(=O)Nc3nccs3)cc2Cl)CC1` [Example 20, 4-((((1s,4s)-4-Aminocyclohexyl)methyl)amino)-5-chloro-2-fluoro-N-(thiazol-2-yl)benzenesulfonamide], 7 nM.
To `N[C@H]1CC[C@H](CNc2cc(F)c(S(=O)(=O)Nc3nccs3)cc2Cl)CC1` [Example 21, 4-((((1r,4r)-4-Aminocyclohexyl)methyl)amino)-5-chloro-2-fluoro-N-(thiazol-2-yl)benzenesulfonamide] belongs 398 nM; to `CNC1CCC(CNc2cc(F)c(S(=O)(=O)Nc3nccs3)cc2Cl)CC1` (stereo not drawn) [Example 23, 5-Chloro-4-(((4-(methylamino)cyclohexyl)methyl)amino)-2-fluoro-N-(thiazol-2-yl)benzenesulfonamide], 16 nM.
The molecule `CN(C)C1CCC(CNc2cc(F)c(S(=O)(=O)Nc3nccs3)cc2Cl)CC1` (stereo not drawn) [Example 24, 5-Chloro-4-(((4-(dimethylamino)cyclohexyl)methyl)amino)-2-fluoro-N-(thiazol-2-yl)benzenesulfonamide] yielded a 50% inhibitory concentration (IC50) of 69 nM.
`O=S(=O)(Nc1nccs1)c1cc(Cl)c(NCC2CCC(N3CCC3)CC2)cc1F` (stereo not drawn) [Example 25, 4-(((4-(Azetidin-1-yl)cyclohexyl)methyl)amino)-5-chloro-2-fluoro-N-(thiazol-2-yl)benzenesulfonamide] gave an IC50 of 50 nM.
To `O=S(=O)(Nc1nccs1)c1cc(Cl)c(NCC2CCC(N3CCOCC3)CC2)cc1F` (stereo not drawn) [Example 26, 5-Chloro-2-fluoro-4-(((4-morpholinocyclohexyl)methyl)amino)-N-(thiazol-2-yl)benzenesulfonamide] belongs 27 nM.
`CN1CCN(C2CCC(CNc3cc(F)c(S(=O)(=O)Nc4nccs4)cc3Cl)CC2)CC1` (stereo not drawn) [Example 27, 5-Chloro-2-fluoro-4-(((4-(4-methylpiperazin-1-yl)cyclohexyl)methyl)amino)-N-(thiazol-2-yl)benzenesulfonamide] returned an IC50 of 40 nM.
To `NC1CCCC(Nc2cc(F)c(S(=O)(=O)Nc3nccs3)cc2Cl)C1` (stereo not drawn) [Example 28, 4-((3-Aminocyclohexyl)amino)-5-chloro-2-fluoro-N-(thiazol-2-yl)benzenesulfonamide] belongs 27 nM; to `NC1(CCNc2cc(F)c(S(=O)(=O)Nc3nccs3)cc2Cl)CCCCC1` [Example 29, 4-((2-(1-Aminocyclohexyl)ethyl)amino)-5-chloro-2-fluoro-N-(thiazol-2-yl)benzenesulfonamide], 74 nM.
Consider `CC1CC(C)(C)C(CNc2cc(F)c(S(=O)(=O)Nc3nccs3)cc2Cl)C1N` (stereo not drawn) [Example 30, 4-(((5-Amino-2,2,4-trimethylcyclopentyl)methyl)amino)-5-chloro-2-fluoro-N-(thiazol-2-yl)benzenesulfonamide], for which the IC50 was found to be 12 nM.
`NC1CCCC1CNc1cc(F)c(S(=O)(=O)Nc2nccs2)cc1Cl` (stereo not drawn) [Example 31, 4-(((2-Aminocyclopentyl)methyl)amino)-5-chloro-2-fluoro-N-(thiazol-2-yl)benzenesulfonamide] gave an IC50 of 12 nM.
`NCC1CCCC(CNc2cc(F)c(S(=O)(=O)Nc3nccs3)cc2Cl)C1` (stereo not drawn) [Example 32, 4-(((3-(Aminomethyl)cyclohexyl)methyl)amino)-5-chloro-2-fluoro-N-(thiazol-2-yl)benzenesulfonamide] yielded a half-maximal inhibitory concentration (IC50) of 28 nM.

Source of the values: patent US10836758B2, “Acyl sulfonamide NaV1.7 inhibitors” (BRISTOL-MYERS SQUIBB COMPANY, priority 2016, dated 2020).
